The source made the active and inactive calls. The rule behind the calls is not given here.
Columns and labels:
[1] = molecular target: Lysosomal alpha-glucosidase (Rattus norvegicus) (UniProt Q6P7A9); assay: Inhibition of rat intestinal maltase using maltose as substrate at 10 mg/ml preincubated for 10 mins before substrate addition by glucose oxidase method
[2] = molecular target: Sucrase-isomaltase, intestinal (Rattus norvegicus) (UniProt P23739); assay: Inhibition of rat intestinal sucrase using sucrose as substrate at 10 mg/ml preincubated for 10 mins before substrate addition by glucose oxidase method
Sequence of Sucrase-isomaltase, intestinal (Rattus norvegicus) (P23739 1-1013 limits assumed): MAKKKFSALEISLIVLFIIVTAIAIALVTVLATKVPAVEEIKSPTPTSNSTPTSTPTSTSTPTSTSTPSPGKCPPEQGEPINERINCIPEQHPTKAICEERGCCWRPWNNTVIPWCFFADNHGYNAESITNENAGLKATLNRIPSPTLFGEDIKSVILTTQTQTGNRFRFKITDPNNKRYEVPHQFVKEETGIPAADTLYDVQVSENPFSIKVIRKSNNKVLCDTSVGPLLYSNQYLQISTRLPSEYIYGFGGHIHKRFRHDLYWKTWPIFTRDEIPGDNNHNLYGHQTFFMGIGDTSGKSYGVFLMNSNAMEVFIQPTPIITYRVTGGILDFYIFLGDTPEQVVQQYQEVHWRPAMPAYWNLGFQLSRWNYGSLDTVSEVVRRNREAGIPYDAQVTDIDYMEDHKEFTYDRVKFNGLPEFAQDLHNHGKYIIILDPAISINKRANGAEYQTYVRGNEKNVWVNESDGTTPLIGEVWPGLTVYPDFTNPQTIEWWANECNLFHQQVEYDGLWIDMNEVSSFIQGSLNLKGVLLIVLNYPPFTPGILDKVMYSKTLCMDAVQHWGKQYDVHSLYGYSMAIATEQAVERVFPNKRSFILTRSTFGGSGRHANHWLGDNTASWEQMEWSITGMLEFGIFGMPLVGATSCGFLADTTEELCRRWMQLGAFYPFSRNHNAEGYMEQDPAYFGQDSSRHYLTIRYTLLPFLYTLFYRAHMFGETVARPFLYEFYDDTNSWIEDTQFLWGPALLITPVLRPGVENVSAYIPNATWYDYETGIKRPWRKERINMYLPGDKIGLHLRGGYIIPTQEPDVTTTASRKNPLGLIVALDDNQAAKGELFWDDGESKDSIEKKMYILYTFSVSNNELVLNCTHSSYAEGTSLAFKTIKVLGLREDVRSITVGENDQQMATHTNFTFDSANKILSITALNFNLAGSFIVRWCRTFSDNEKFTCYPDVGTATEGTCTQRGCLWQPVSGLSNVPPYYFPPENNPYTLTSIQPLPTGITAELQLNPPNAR
Sequence of Sucrase-isomaltase, intestinal (Rattus norvegicus) (P23739 1014-1841 limits assumed): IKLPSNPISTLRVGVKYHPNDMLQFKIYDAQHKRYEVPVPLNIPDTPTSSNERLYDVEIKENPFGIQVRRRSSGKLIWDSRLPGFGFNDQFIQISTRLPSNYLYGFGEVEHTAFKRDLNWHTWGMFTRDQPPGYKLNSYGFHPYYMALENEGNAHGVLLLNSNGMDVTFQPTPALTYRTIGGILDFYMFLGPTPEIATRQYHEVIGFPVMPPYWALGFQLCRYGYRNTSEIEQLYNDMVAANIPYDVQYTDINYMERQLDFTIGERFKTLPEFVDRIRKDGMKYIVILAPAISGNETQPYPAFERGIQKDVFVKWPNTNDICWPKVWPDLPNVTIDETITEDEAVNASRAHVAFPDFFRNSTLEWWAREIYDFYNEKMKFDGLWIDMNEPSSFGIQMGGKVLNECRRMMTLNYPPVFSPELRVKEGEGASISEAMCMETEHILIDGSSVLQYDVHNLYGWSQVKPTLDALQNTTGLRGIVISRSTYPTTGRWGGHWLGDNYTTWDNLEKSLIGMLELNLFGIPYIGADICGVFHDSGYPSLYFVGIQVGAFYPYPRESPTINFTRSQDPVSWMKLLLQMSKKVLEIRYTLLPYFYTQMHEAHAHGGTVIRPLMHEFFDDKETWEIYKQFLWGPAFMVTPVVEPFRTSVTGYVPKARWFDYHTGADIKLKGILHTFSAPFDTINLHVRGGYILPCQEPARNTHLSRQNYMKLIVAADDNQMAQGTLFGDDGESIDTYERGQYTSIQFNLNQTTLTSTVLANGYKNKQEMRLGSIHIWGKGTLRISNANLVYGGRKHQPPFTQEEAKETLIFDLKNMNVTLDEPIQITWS

[3] = Inhibition of bakers yeast alpha-glucosidase using p-nitrophenyl-(alpha-D-glucopyranoside) as substrate preincubated for 10 mins before substrate addition by microplate reader; set-up: species or system Saccharomyces cerevisiae
Saccharomyces cerevisiae = assay: Inhibition of bakers yeast alpha-glucosidase using p-nitrophenyl-(alpha-D-glucopyranoside) as substrate at 10 mg/ml preincubated for 10 mins before substrate addition by microplate reader
[4] = molecular target: Lysosomal alpha-glucosidase (Rattus norvegicus) (UniProt Q6P7A9); details: 0.1 to 1 mg/ml
Description: Mixed type inhibition of rat intestinal maltase using maltose as substrate at 0.1 to 1 mg/ml

[5] = molecular target: Lysosomal alpha-glucosidase (Rattus norvegicus) (UniProt Q6P7A9); details: 0.1 to 1 mg/ml; remark: listed apart in the source
[6] = molecular target: Lysosomal alpha-glucosidase (Rattus norvegicus) (UniProt Q6P7A9); details: 0.1 to 1 mg/ml; remark: listed apart in the source
Description: Non-competitive inhibition of rat intestinal maltase using maltose as substrate assessed as enzyme-substrate-inhibitor complex formation at 0.1 to 1 mg/ml by Lineweaver-Burk plot analysis

Sequence of Lysosomal alpha-glucosidase (Rattus norvegicus) (Q6P7A9 whole entry): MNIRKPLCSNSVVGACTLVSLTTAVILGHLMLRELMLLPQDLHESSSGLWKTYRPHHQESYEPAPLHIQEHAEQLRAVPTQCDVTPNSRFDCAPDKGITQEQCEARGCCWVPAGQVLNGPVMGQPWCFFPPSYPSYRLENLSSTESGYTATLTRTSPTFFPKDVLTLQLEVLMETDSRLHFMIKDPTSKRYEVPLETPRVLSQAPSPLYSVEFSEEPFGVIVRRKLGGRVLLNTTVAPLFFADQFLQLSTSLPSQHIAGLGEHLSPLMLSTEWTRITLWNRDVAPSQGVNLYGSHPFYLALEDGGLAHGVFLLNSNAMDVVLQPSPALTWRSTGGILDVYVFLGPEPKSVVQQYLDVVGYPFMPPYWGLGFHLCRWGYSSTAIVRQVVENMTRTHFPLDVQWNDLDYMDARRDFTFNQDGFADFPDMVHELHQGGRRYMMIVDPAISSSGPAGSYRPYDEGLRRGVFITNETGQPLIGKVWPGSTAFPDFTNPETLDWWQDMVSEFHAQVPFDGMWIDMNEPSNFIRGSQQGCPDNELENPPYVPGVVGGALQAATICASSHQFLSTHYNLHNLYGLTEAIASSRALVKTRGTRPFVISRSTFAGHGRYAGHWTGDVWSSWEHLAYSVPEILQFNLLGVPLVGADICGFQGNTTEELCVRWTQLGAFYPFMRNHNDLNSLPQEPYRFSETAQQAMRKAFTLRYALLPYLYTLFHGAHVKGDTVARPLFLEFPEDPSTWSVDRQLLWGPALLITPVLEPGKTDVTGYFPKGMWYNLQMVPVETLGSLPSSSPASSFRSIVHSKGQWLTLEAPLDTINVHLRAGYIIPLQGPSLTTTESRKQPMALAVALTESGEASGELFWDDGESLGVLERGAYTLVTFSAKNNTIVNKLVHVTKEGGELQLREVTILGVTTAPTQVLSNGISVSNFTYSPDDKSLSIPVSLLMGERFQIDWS

Row | Compound | inhibition [1] | inhibition [2] | IC50 [3] | inhibition (Saccharomyces cerevisiae) | inhibition [4] | inhibition [5] | inhibition [6]
1 | c1cc2c(cc1O[C@H]1OC[C@H]3[C@@H]1CO[C@@H]3c1ccc3c(c1)OCO3)OCO2 [SESAMOLIN] | < 30% | < 30% | 200 µM | – | – | – | –
2 | c1cc2c(cc1[C@H]1OC[C@H]3[C@@H]1CO[C@@H]3c1ccc3c(c1)OCO3)OCO2 [SESAMIN] | < 30% | < 30% | 450 µM | – | – | – | –
3 | OC[C@H]1O[C@@H](Oc2cc3c(cc2[C@H]2OC[C@H]4[C@@H]2CO[C@@H]4c2ccc4c(c2)OCO4)OCO3)[C@H](O)[C@@H](O)[C@@H]1O | < 30% | < 30% | – | < 30% | – | – | –
4 | COc1cc([C@@H]2OC[C@@H]3[C@H]2CO[C@H]3c2ccc(O)c(OC)c2)ccc1O [(+)-PINORESINOL] | – | < 30% | 492 µM | – | Active | Active | Active
